Experimental data taken from article PMC11758220, “Identification of a Privileged Scaffold for Inhibition of Sterol Transport Proteins through the Synthesis and Ring Distortion of Diverse, Pseudo-Natural Products” (ACS Central Science, 2025).

Key:
panel of STPs = test: Screen against a broad panel of the STPs using FP and DSF assays; type: binding, human
Source text: Protein expression constructs
Human ASTER domains of Aster-A(359-547), -B(364-552) and -C(318-504) were subcloned into a pGEX-6p-2rbs vector, thus introducing the cloning artifact ‘GPLGS’.3 The pGEX-6P-1-GST-OSBP(377- […]
a gift from James H. Hurley (University of California).4 The pHIS_2His6_Thrombin_STARD4(2-205;C75S) plasmid was a gift from Young Jun Im (Chonnam National University).5 STARD5A was a gift from Nicola Burgess-Brown (Addgene plasmid #42392; http://n2t.net/addgene:42392; […]
Protein expression and purification […]
vectors including an N-terminal PreScission-cleavable glutathione S-transferase (GST)-tag were expressed in Escherichia coli (E. coli) OverExpress C41 in Terrific Broth (TB) medium for 16 h at 18 °C after the induction with 0.1 mM isopropyl β-D-1-thiogalactopyranoside (IPTG). Cells were harvested at 3500 × g for 15 minutes and lysed by sonication in buffer containing 50 mM HEPES pH 7.5, 300 mM NaCl, 10 %v/v glycerol, 5 mM dithiothreitol (DTT), 0.1 %v/v Triton X-100 and protease inhibitor mix HP plus (Serva). The lysate was purified by affinity chromatography on a GSTrap FF column (Cytiva) using an ÄKTA Start (Cytiva) in buffer containing 50 mM HEPES pH 7.5, 300 mM NaCl, 10 %v/v glycerol, 5 mM DTT and 0.01 %v/v Triton X-100. The GST-tag was cleaved overnight on the column at 4 °C. […]

[1] = Stability test of spirooxepinoindole in DMSO and FP assay buffer (LC-LRMS); type: physicochemical
Procedure: Stability test of spirooxepinoindole
The stability of the spirooxepinoindoles in dimethyl sulfoxide and in the assay buffer was tested to be […]
A sample in the FP assay buffer was prepared from the dimethyl sulfoxide stock solution of compound 15b. The dimethyl sulfoxide stock solution was prepared 2021.12.10, and the sample in the assay buffer was prepared 2022.09.28. The samples were monitored by LC-LRMS over time to look for degradation. Both acidic and basic LC-LRMS runs were used since acidic conditions could catalys e the re-condensation of potential hydrolysed spirooxepinoindoles.
Sample: Compound 15b in FP assay buffer: 20 mM HEPES, 300 mM NaCl, 0.01 %v/v Tween -20, 0.5 %v/v glycerol, 2 mM DTT. Concentration: 1.7 mM.
Figure S6: LC-LRMS trace of the stability test of spirooxepinoindole 15b in FP assay buffer measured using the acidic run. (a) UV chromatogram after zero hours, (b) UV chromatogram after four hours, (c) UV chromatogram after 20 hours, (d) MS spectrum.
LC-LRMS (ESI+) m/z: 332.0 found for [M+H]+ for 15b, 332.1 calcd. For C17H19BrNO+. […]
Figure S7: LC-LRMS trace of the stability test of spirooxepinoindole 15b in FP assay buffer measured using the basic run. (a) UV chromatogram after zero hours, (b) UV chromatogram after four hours, (c) UV chromatogram […]
for 20 hours showing no sign of degradation (Figure S6 and Figure S7). […]

| Compound | Activity against the panel of STPs (in words) (panel of STPs) | Stability in FP assay buffer (no sign of degradation) ([1]; 20 mM HEPES, 300 mM NaCl, 0.01 %v/v Tween-20, 0.5 %v/v glycerol, 2 mM DTT, 1.7 mM) [h] | Stability in dimethyl sulfoxide (no sign of degradation) ([1]; DMSO stock solution) |
| --- | --- | --- | --- |
| CC12CCC3CC1CCC21C(=Nc2ccc(N4CCNCC4)cc21)O3 (stereo not drawn) [Compound 22] | lost almost all activity | – | – |
| C[C@]12CC[C@@H]3C[C@H]1CC[C@@]21C(=Nc2ccc(Br)cc21)O3 (racemic) [Compound 15b] | – | 20 | several months |
